Data: patent publication US20050203164A1, “Use of acylaminoalkenylene-amide derivatives in functional motility disorders of the viscera” (priority 2002, published 2005)
No end group written: not given here.

Legend:
conscious guinea pigs [1] = experiment: colonic tissue irritation (acetic acid)-induced visceral hypersensitivity, visceromotor response to colorectal distension; format: in vivo, guinea pig; settings: p<0.05 ANOVA post-hoc Dunnett's test
Protocol: (§1) In conscious guinea pigs, two experimental paradigms are applied to induce visceral hypersensitivity, i) restraint stress (immobilization of the animals in a tube) and ii) colonic tissue irritation (colonic instillation of acetic acid, 0.6% in saline, 1.5 ml, 2 cm proximal to the anus). Colorectal distension is performed by inflating a balloon to a net pressure (at the colonic wall) of 20 mmHg (26.7 mbar) for 10 minutes before and following induction of visceral hypersensitivity. During the distension period the visceromotor response, i.e. the number and quality of abdominal contractions (body arching and lifting of pelvic structures) are recorded and quantified in a blinded fashion (Al-Chaer et al., Gastroenterology 2000; 119: 1276-1285). Following the performance of baseline colorectal distension protocols, vehicle or the compound of formula II (3 and 10 mg/kg) are dosed orally one hour prior to the second colorectal distensions, which are done after the induction of visceral hypersensitivity. The effects of vehicle and the compound of formula II are assessed in 6-8 animals. […] The compound of formula II reverses the exaggerated behavioural pain responses upon colorectal balloon distensions in both restraint stress-induced and tissue irritation-induced colonic hypersensitivity.

conscious guinea pigs [2] = experiment: restraint stress-induced visceral hypersensitivity, visceromotor response to colorectal distension; format: in vivo, guinea pig; settings: restraint stress-induced colonic hypersensitivity, p<0.05 ANOVA post-hoc Dunnett's test
Protocol: as §1

[3] = system: isolated segments of guinea pig ileum; experiment: Substance P-mediated exaggerated peristalsis in organ baths (peristaltic reflex model); format: cell-based
Description: Substance P—mediated exaggerated peristalsis is studied in Mayflower organ baths using isolated segments of guinea pig ileum (Holzer et al., J. Pharmacol. Exp. Ther. 1995; 274: 322-328). The lumen of ileal segments is perfused with Krebs-Henseleit solution, and intraluminal pressures are continuously recorded. […] Any wave of peristaltic contractions results in a spike-like increase in intraluminal pressure and causes a partial emptying of fluid from the segment. Pressure thresholds triggering peristaltic contractions are used to quantify the effects of the compound of formula II.

[4] = system: submucosalmucosa preparations of guinea pig colon; experiment: epithelial secretion (electrogenic chloride secretion), Ussing chamber short circuit currents; format: cell-based
Protocol: Epithelial secretion is tested in submucosalmucosa preparations of guinea pig colon. Using Ussing chamber techniques (Frieling et al., Naunyn Schmiedebergs Arch. Pharmacol. 1999; 359: 71-79) short circuit currents are recorded, and epithelial secretion (electrogenic chloride secretion) is stimulated via cumulative treatment with substance P (0.1 nM up to 10 μM); it triggers secretion (increases in short circuit currents) in a concentration-dependent fashion (pD2=7.50 ).

[5] = 3 mg/kg p.o. one hour prior to distension
[6] = 10 mg/kg p.o. one hour prior to distension

Compound | reversal of exaggerated behavioural pain responses upon colorectal balloon distension (conscious guinea pigs [1]; [5]) | reversal of exaggerated behavioural pain responses upon colorectal balloon distension (conscious guinea pigs [1]; [6]) | reversal of exaggerated behavioural pain responses upon colorectal balloon distension (conscious guinea pigs [2]; [5]) | reversal of exaggerated behavioural pain responses upon colorectal balloon distension (conscious guinea pigs [2]; [6]) | apparent pA2, competitive inhibition of substance P-evoked exaggerated peristalsis ([3]; 30 nM) | apparent pA2, competitive inhibition of substance P-evoked exaggerated peristalsis ([3]; 100 nM) | pA2 (Schild plot analysis), competitive inhibition of substance P-induced electrogenic chloride secretion ([4]; 30 nM, 100 nM and 300 nM) | pD2, lowering of pressure thresholds triggering peristaltic contractions ([3]; cumulative application 1 nM up to 30 μM) | pD2, stimulation of secretion (increases in short circuit currents) ([4]; cumulative treatment 0.1 nM up to 10 μM)
CN(C(=O)c1cc(C(F)(F)F)cc(C(F)(F)F)c1)[C@@H](/C=C/C(=O)N[C@@H]1CCCCNC1=O)Cc1ccc(Cl)c(Cl)c1 [compound of formula II, (4R)-4-[N′-methyl-N′-(3,5-bistrifluoromethylbenzoyl)amino]-4-(3,4-dichlorobenzyl)-but-2-enoic acid N-[(R)-epsilon-caprolactam-3-yl]-amide] | statistically significant | statistically significant | statistically significant | statistically significant | 7.35 | 7.23 | 7.94 |  | 
substance P: agonist applied cumulatively to evoke exaggerated peristalsis and epithelial chloride secretion (RPKPQQFFGLM; ends and bridges not checked; UniProt P20366 58-68, looked up) [reference compound] |  |  |  |  |  |  |  | 7.20 | 7.50
